Data published in patent US5747504A, “Method of treating cardiac insufficiency using angiotensin-converting enzyme inhibitors” (priority 1984, dated 1998).

Tests used:
Format in all cases: in vivo
ACE in the heart = assay: Inhibition of ACE in the heart after oral treatment of spontaneously hypertensive rats
Experimental: It is known that converting enzyme inhibitors are capable of inhibiting the enzyme not only in the serum but also in various tissues, and especially also in the heart.
In contrast, with 30 mg/kg of N-(1-carbethoxy-3-phenyl-propyl)-S-alanyl-S-proline (enalapril) perorally, already no further significant inhibition is observed after more than 6 hours.

isolated heart [1] = assay: Effect of angiotensin I and bradykinin on coronary blood flow in the isolated heart after oral pretreatment; conditions: isolated heart of rabbits, guineapigs and rats
Experimental: Angiotensin I decreases whilst bradykinin increases the coronary blood flow in the isolated heart of rabbits, guineapigs and rats. […] The same effect can only be achieved with 30 mg/kg of enalapril.

isolated heart [2] = assay: Postganglionic sympathetic stimulation on the isolated heart after oral pretreatment; conditions: oral pretreatment with 1 mg/kg perorally, rabbits
Source text: Postganglionic sympathetic stimulation on the isolated heart leads, via increased catecholamine release, to an increase in heart rate and contractility and to a decrease in coronary blood flow. […] These effects act together to protect the incompetent heart.

[3] = oral pretreatment with 1 mg/kg perorally

CCOC(=O)[C@H](CCc1ccccc1)N[C@@H](C)C(=O)N1[C@H](C(=O)O)C[C@@H]2CCC[C@@H]21 [compound of the formula II, N-(1-S-carbethoxy-3-phenyl-propyl)-S-alanyl-cis-endo-2-azabicyclo[3,3,0]octane-3-S-carboxylic acid]
inhibition of the ACE in the heart at the end of treatment (ACE in the heart; chronic oral treatment for two weeks with 1 mg/kg): 55%
duration of significant inhibition of the ACE in the heart (ACE in the heart; single oral dose of 1 mg/kg): > 24 h
action of bradykinin on coronary blood flow (isolated heart [1]; [3]): increases
effect of angiotensin I on coronary blood flow (isolated heart [1]; [3]): significantly reduces
influence of postganglionic sympathetic stimulation on contractility (isolated heart [2]): unaffected
influence of postganglionic sympathetic stimulation on coronary blood flow (isolated heart [2]): significantly reduces
influence of postganglionic sympathetic stimulation on heart rate (isolated heart [2]): significantly reduces

CCOC(=O)[C@H](CCc1ccccc1)N[C@@H](C)C(=O)N1CCC[C@H]1C(=O)O [enalapril, N-(1-carbethoxy-3-phenyl-propyl)-S-alanyl-S-proline, reference compound]
duration of significant inhibition of the ACE in the heart (ACE in the heart; 30 mg/kg perorally): ≤ 6 h
inhibition of the ACE in the heart at the end of treatment (ACE in the heart; chronic oral treatment for two weeks with 30 mg/kg perorally): no inhibition is observed
action of bradykinin on coronary blood flow (isolated heart [1]; 30 mg/kg): same effect
effect of angiotensin I on coronary blood flow (isolated heart [1]; 30 mg/kg): same effect
